Assay results: patent US11807693B2 (priority 2014, dated 2023)
Non-standard residues stand in square brackets, D forms with d. Residues, ends and D or L forms follow the SMILES beside them. No end group written: not given here. ξ: configuration not given here. dBip = N[C@H](Cc1ccc(-c2ccccc2)cc1)C(=O)O; Oic = O=C(O)[C@@H]1C[C@@H]2CCCC[C@@H]2N1; Phe(4-Cl) = N[C@@H](Cc1ccc(Cl)cc1)C(=O)O; Oic(3aξ,7aξ) = O=C(O)[C@@H]1CC2CCCCC2N1; Phe(4-I) = N[C@@H](Cc1ccc(I)cc1)C(=O)O; hArg = N=C(N)NCCCC[C@H](N)C(=O)O; Cha = N[C@@H](CC1CCCCC1)C(=O)O; NMeL = CN[C@@H](CC(C)C)C(=O)O; Nle = CCCC[C@H](N)C(=O)O

How the values were obtained:
[1] = system: Rat Peritoneal Mast Cells
[2] = system: rats with myocardial infarction (MI)-induced heart failure; test: Hemodynamics in rats with MI-induced heart failure (Millar PV loop); format: in vivo, Lewis rats; details: continuous i.v. infusion, 30 min per dose
Description: To assess the cardiovascular effects of modified apelin polypeptides, the polypeptides were administered to rats with myocardial infarction (MI)-induced heart failure. Cardiac function was assessed via the Millar PV loop system.
Male Lewis rats at 2-3 month of age were used for the studies. MI was induced by ligation of the left anterior descending coronary artery (LAD). Echocardiography was performed at 1 week post-MI for animal enrollment. If ejection fraction (EF) was more than 40% and no infarct was identified from echocardiography images, these animals were excluded from the study. A Millar PV loop catheter was inserted into the right common carotid artery and then advanced to the left ventricle (LV) for cardiovascular hemodynamic assessment. The arterial pressure catheter was inserted into a femoral artery for peripheral blood pressure monitoring. Experiments were performed six to seven weeks following induction of MI. The following apelin polypeptides were given intravenously via jugular vein at various doses.
Peptides were continuously infused for 30 min at each dose. At the end of the experiment, the infarct size was verified by gross morphology. FIGS. 6-8 show the results of these experiments. The infarct size (38-39% of LV) was very similar among groups. […] Contractility (dp/dt max), ejection fraction (EF), mean arterial pressure (MAP), and heart rate (HR) changes over baseline are reported at the end of the 30 min infusion period for each polypeptide.

[3] = system: isolated perfused rat hearts; test: Langendorff isolated perfused rat heart; details: FIGS. 4A-D and 5A-D
From the text: To assess the hemodynamic cardiac function of the peptides, a Langendorff isolated heart system was used. The isolated heart from rat provides a broad spectrum of measurements that can include biochemical, metabolic, morphological and physiological indices. Although the system lacks neurohormonal influences, neural regulation and high coronary flows, the advantages of the system include the ability to study direct cardiac effects without systemic circulation and a host of peripheral interactions. This method can yield excellent dose-response relationships and provides critical insight into the pharmacological and physiological properties of the molecules of interest.
Animals were anesthetized through administration of 50-100 mg/kg dose of sodium pentobarbital via the intraperitoneal route. The heart was excised and gently cradled between fingers to avoid injury followed by lifting slightly before incising the aorta, vena cava and pulmonary vessels. Immediately after excision of the heart with aorta, the heart was mounted onto the cannula in the Langendorff apparatus via the aorta. […] The pressure was measured through a pressure sensing balloon catheter inserted in the left ventricular cavity. The intrinsic inotropy (force of muscle contraction) and lusitropy (cardiac relaxation) effects of the heart were assessed by dp/dtmax and dp/dtmin.

[4] = In vitro stability in rat plasma; format: in vitro ADME
Procedure, shortened: (§1)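 Apelin peptides were spiked at 5 μM final into rat plasma, liver homogenate or kidney homogenate and incubated at 37° C. for up to 4 hr. Aliquots were quenched with MeOH containing internal standard, centrifuged, and supernatants analyzed by high resolution LC-MS.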

[5] = In vitro stability in rat kidney homogenate; format: in vitro ADME; details: rat, tissue homogenate
Procedure, shortened: as §1

[6] = In vitro stability in rat liver homogenate; format: in vitro ADME; details: tissue homogenate
Procedure, shortened: as §1

[7] = system: Human Mast Cells; test: Mast cell degranulation (histamine release), human mast cells; format: cell-based; details: human mast cells derived from CD34+ peripheral blood cells; 0.005 to 30 μM, 37° C., 30 min; less than 30% of total histamine content = negative
Description: Mast cell degranulation was measured for a number of the modified apelin polypeptides as follows in order to determine the potential immunogenic effect of the peptides. Mast cell degranulating peptide (MCDP) and compound 48/80 were used as positive controls. MCDP was obtained from Alomone Labs (Israel). Compound 48/80 was obtained from Sigma (Saint Louis, […].). Histamine Elisa kit was obtained from NEOGEN (Lexington, Ky.). Tyrode's buffer was obtained from Sigma (#T2397).
Mature human mast cells were derived from CD34+peripheral blood precursor cells after an 8-12 week differentiation/maturation process in vitro. […] Mast cell maturation was confirmed via expression of the mast cell markers c-kit and FcεRI via flow cytometry (>75% positive) and histamine release.
Mast cells (human or rat) were washed in Tyrode's buffer and seeded on 96-well plates (approx. 2000 mast cells/well). A 10 point dilution of test compounds were prepared in Tyrode's buffer and were incubated (0.005 to 30 μM) with mast cells at 37° C. for 30 min. […] A mast cell surfactant control is compared to a mast cell Tyrode's buffer control to ensure surfactants are not inducing histamine release in the absence of the lipidated molecule. Histamine release was quenched by placing the plates on ice for 5 min. Cells were centrifuged at 350×g at 4° C. for 5 min and the supernatant was collected. Released histamine was quantified by ELISA (Neogen Corporation) as per the kits' instruction. Briefly, the absorbance was measured at 650 nm in a microplate reader, following a direct competitive ELISA reaction with test samples compared against a standard curve. Total histamine content of the cells (0.1% Triton X-100) and spontaneous release were also measured to determine the percent of histamine release. Percent histamine release was calculated by the following formula: % histamine release=(ng/ml histamine release by test article−ng/ml spontaneous histamine release in Tyrode's buffer)/(ng/ml total histamine content of cells lysed in 0.1% Triton X-100−ng/ml spontaneous histamine release in Tyrode's buffer)×100.

[8] = kidney homogenate; details: rat, 37° C., up to 4 hr
[9] = liver homogenate; details: rat, 37° C., up to 4 hr
[10] = molecular target: T1, rat APJ receptor (Rattus norvegicus, UniProt Q9JHG3); test: [35S] GTPγS assay, rat APJ receptor; format: biochemical; details: rat APJ receptor, read-out: EC50 Rat APJ Receptor
T1 construct: expressed in transfected cells
T1 sequence (Q9JHG3 1-377): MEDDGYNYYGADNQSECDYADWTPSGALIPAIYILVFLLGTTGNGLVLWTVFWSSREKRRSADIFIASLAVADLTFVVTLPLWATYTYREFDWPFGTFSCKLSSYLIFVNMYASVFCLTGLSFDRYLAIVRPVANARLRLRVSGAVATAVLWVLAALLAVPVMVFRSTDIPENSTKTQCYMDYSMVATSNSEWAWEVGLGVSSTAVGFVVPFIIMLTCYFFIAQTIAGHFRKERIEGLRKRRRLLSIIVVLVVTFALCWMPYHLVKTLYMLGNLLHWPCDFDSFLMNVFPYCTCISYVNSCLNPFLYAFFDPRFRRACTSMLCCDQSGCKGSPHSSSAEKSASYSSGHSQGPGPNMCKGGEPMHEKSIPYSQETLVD
Description: The membranes were incubated with modified peptides in the assay buffer. […] Bound [^35S] GTPγS was separated from free radiolabel by filtration. The filter bound radioactivity was determined by liquid scintillation counting.

## CSCC[C@H](NC(=O)[C@@H]1CCCN1C(=O)CNC(=O)[C@H](CCCCN)NC(=O)[C@H](Cc1cnc[nH]1)NC(=O)[C@H](CO)NC(=O)[C@H](CC(C)C)NC(=O)[C@H](CCCNC(=N)N)NC(=O)[C@@H]1CCCN1C(=O)[C@H](CCCNC(=N)N)NC(=O)[C@@H]1CCC(=O)N1)C(=O)N1CCC[C@H]1C(=O)N[C@@H](Cc1ccccc1)C(=O)O [SEQ ID NO: 6, reference compound]
[1]
  Cause Histamine Release?: No
[2]
  hemodynamic function (dp/dt max, EF, MAP, HR) in MI rats: dose-dependent effects

## CC(=O)N[C@@H](CCC(N)=O)C(=O)N[C@@H](CCCCNC(=N)N)C(=O)N1CCC[C@H]1C(=O)N[C@H](CCCNC(=N)N)C(=O)N(C)[C@@H](CC(C)C)C(=O)N[C@@H](CO)C(=O)N[C@@H](Cc1c[nH]cn1)C(=O)N[C@@H](CCCCN)C(=O)NCC(=O)N1C2CCCCC2C[C@H]1C(=O)N[C@@H](Cc1ccc(I)cc1)C(=O)N1CCC[C@H]1C(=O)N[C@H](Cc1ccc(-c2ccccc2)cc1)C(=O)O (stereo partly drawn) [SEQ ID NO: 53, {Acetyl-NH}Q[hArg]Pr[NMeLeu]SHKG[Oic][pI-Phe]P[D-Bip]{COOH}] (Ac-Q[hArg]P[dR][NMeL]SHKG[Oic(3aξ,7aξ)][Phe(4-I)]P[dBip]-OH)
[3]
  systolic and diastolic function in isolated perfused rat hearts: dose-dependent improvement of both systolic and diastolic function

## CC(=O)N[C@@H](CCCCNC(=N)N)C(=O)N[C@H](CCCNC(=N)N)C(=O)N[C@@H](CCC(N)=O)C(=O)N[C@@H](CCCCNC(=N)N)C(=O)N1CCC[C@H]1C(=O)N[C@H](CCCNC(=N)N)C(=O)N(C)[C@@H](CC(C)C)C(=O)N[C@@H](CO)C(=O)N[C@@H](Cc1c[nH]cn1)C(=O)N[C@@H](CCCCN)C(=O)NCC(=O)N1[C@H](C(=O)N[C@@H](Cc2ccc(I)cc2)C(=O)N2CCC[C@H]2C(=O)N[C@H](Cc2ccc(-c3ccccc3)cc2)C(=O)O)C[C@@H]2CCCC[C@@H]21 [compound 16] (Ac-[hArg][dR]Q[hArg]P[dR][NMeL]SHKG[Oic][Phe(4-I)]P[dBip]-OH)
[4]
  remaining at 4 h, 5 μM: 86.1%
[5]
  remaining at 4 h, 5 μM: 44.5%
[6]
  remaining at 4 h, 5 μM: 40.7%
[2]
  hemodynamic function (dp/dt max, EF, MAP, HR) in MI rats: dose-dependent effects

## CCCC[C@H](NC(=O)[C@@H]1CCCN1C(=O)CNC(=O)[C@H](CCCCN)NC(=O)[C@H](Cc1c[nH]cn1)NC(=O)[C@H](CO)NC(=O)[C@H](CC(C)C)NC(=O)[C@H](CCCNC(=N)N)N(C)C(=O)[C@@H]1CCCN1C(=O)[C@H](CCCNC(=N)N)NC(=O)[C@H](CCC(N)=O)NC(=O)COCCOCCNC(=O)COCCOCCNC(=O)CC[C@H](NC(=O)CCC)C(=O)O)C(=O)N1CCC[C@H]1C(=O)N[C@@H](Cc1ccc(Cl)cc1)C(=O)O [compound 491]
[4]
  remaining at 4 h, 5 μM: < 1%
[7]
  Induce Histamine Release? Human Mast Cells: No
[6]
  remaining at 4 h, 5 μM: < 1%

## CCCC[C@H](NC(=O)[C@@H]1CCCN1C(=O)CNC(=O)[C@H](CCCCN)NC(=O)[C@H](Cc1c[nH]cn1)NC(=O)[C@H](CO)NC(=O)C(C)(CC(C)C)NC(=O)[C@H](CCCCNC(=N)N)NC(=O)C1(C)CCCN1C(=O)[C@H](CCCNC(=N)N)NC(=O)[C@H](CCC(N)=O)NC(C)=O)C(=O)N1CCC[C@H]1C(=O)N[C@@H](Cc1ccc(Cl)cc1)C(=O)O (stereo partly drawn) [compound 69]
[7]
  Induce Histamine Release? Human Mast Cells: No

## {TDA}[AC4Abu][Aeea][Aeea]RQRP[hArg][NMeLeu]SHKG[Oic][pI-Phe]P[D-Bip]{COOH}
[8]
  not cleaved: >90.0 % remaining at 4 hours
[9]
  not cleaved: >90.0 % remaining at 4 hours

## CC(=O)N[C@@H](CCCCNC(=N)N)C(=O)N[C@H](CCCNC(=N)N)C(=O)N[C@@H](CCC(N)=O)C(=O)N[C@@H](CCCCNC(=N)N)C(=O)N1CCC[C@H]1C(=O)N[C@H](CCCNC(=N)N)C(=O)N(C)[C@@H](CC(C)C)C(=O)N[C@@H](CO)C(=O)N[C@@H](Cc1c[nH]cn1)C(=O)N[C@@H](CCCCN)C(=O)NCC(=O)N1C2CCCCC2C[C@H]1C(=O)N[C@@H](Cc1ccc(I)cc1)C(=O)N1CCC[C@H]1C(=O)N[C@H](Cc1ccc(-c2ccccc2)cc1)C(=O)O (stereo partly drawn) [SEQ ID NO: 16, Acetyl-[hArg][r]Q[hArg]P[r][NMeLeu]SHKG[Oic][pI-Phe]P[D-Bip]{COOH}] (Ac-[hArg][dR]Q[hArg]P[dR][NMeL]SHKG[Oic(3aξ,7aξ)][Phe(4-I)]P[dBip]-OH)
[3]
  systolic and diastolic function in isolated perfused rat hearts: dose-dependent improvement of both systolic and diastolic function

## 109 (QRP[hArg][Cha]SHKG[Oic][Nle]P[Phe(4-Cl)]-OH; not fully specified (N-terminus)) [compound 109]
[2]
  hemodynamic function (dp/dt max, EF, MAP, HR) in MI rats: dose-dependent effects

## CCCC[C@H](NC(=O)[C@@H]1CCCN1C(=O)CNC(=O)[C@H](CCCCN)NC(=O)[C@H](Cc1c[nH]cn1)NC(=O)[C@H](CO)NC(=O)[C@H](CC(C)C)NC(=O)[C@H](CCCNC(=N)N)N(C)C(=O)[C@@H]1CCCN1C(=O)[C@H](CCCNC(=N)N)NC(=O)[C@H](CCC(N)=O)NC(C)=O)C(=O)N1CCC[C@H]1C(=O)N[C@@H](Cc1ccc(Cl)cc1)C(=O)O [compound 68]
[4]
  remaining at 4 h, 5 μM: 59.6%
[10]
  EC50: 0.384 nM
[7]
  Induce Histamine Release? Human Mast Cells: No
[6]
  remaining at 4 h, 5 μM: < 1%

## CCCCCCCCCCCCC(=O)N[C@@H](CCC(=O)NCCOCCOCC(=O)NCCOCCOCC(=O)N[C@@H](CCC(N)=O)C(=O)N[C@@H](CCCNC(=N)N)C(=O)N1CCC[C@H]1C(=O)N(C)[C@@H](CCCNC(=N)N)C(=O)N[C@@H](CC(C)C)C(=O)N[C@@H](CO)C(=O)N[C@@H](Cc1c[nH]cn1)C(=O)N[C@@H](CCCCN)C(=O)NCC(=O)N1CCC[C@H]1C(=O)N[C@@H](CCCC)C(=O)N1CCC[C@H]1C(=O)N[C@@H](Cc1ccc(Cl)cc1)C(=O)O)C(=O)O [compound 287]
[4]
  remaining at 4 h, 5 μM: 18%
[7]
  Induce Histamine Release? Human Mast Cells: Yes
[6]
  remaining at 4 h, 5 μM: < 1%

## {H2} [MerPr] (10K mPEG acetamide) Q R [aMePro] [hArg] [aMeLeu] S H K G P [Nle] P [4-Cl-F] {COOH}
[8]
  not cleaved: >90.0 % remaining at 4 hours
[9]
  not cleaved: >90.0 % remaining at 4 hours
